Measured values from article PMC2719696, “Kinetics and Cellular Site of Glycolipid Loading Control the Outcome of Natural Killer T Cell Activation” (Immunity, 2009).

How the values were obtained:
[1] = target: T1, mCD1d (Mus musculus, UniProt P11609); experiment: Confocal microscopy of L363 staining in JAWS II cells (surface and permeabilized); assay type: cell-based; conditions: for L363 surface staining of intact cells (confocal): 100 nM glycolipid, 1, 4 or 16 hr; for site of L363 staining in permeabilized cells: 1 hr incubation, co-stained for LAMP-1
T1 construct: host or cells: JAWS II (C57BL/6.Trp53-/- derived dendritic cell line)
T1 sequence (P11609 22-336): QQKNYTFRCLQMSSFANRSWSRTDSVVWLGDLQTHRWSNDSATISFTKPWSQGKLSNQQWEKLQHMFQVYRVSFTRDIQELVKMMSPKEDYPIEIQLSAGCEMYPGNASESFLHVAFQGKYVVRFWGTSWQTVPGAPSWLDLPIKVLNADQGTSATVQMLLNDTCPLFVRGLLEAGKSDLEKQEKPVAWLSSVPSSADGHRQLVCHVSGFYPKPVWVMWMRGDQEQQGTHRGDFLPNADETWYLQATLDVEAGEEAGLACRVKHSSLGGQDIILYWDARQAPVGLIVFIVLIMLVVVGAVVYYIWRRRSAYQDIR
T1 sequence (P01887 21-119 partner): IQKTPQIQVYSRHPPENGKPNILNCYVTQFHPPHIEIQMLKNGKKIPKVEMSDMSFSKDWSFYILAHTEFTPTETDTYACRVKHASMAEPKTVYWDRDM
Experimental: To visualize the kinetics and sites of mCD1d loading by αGalCer analogs in live cells, we analyzed intact JAWS II cells for surface staining with mAb L363 after 1, 4, or 16 hr of incubation with αGalCer-C26:0 or with either of two Th2 cell-type cytokine-biasing analogs (αGalCer-C20:2 or -C10:0) (Figure 4A). Strong staining of the plasma membrane was seen after 16 hr of incubation in all cases. […] To image earlier steps in glycolipid loading, we permeabilized and fixed cells prior to staining with L363 and with an antibody to the late endosomal and lysosomal marker LAMP-1 (Figure 4A). […] At 4 hr, these complexes began to colocalize with LAMP-1, and only at 16 hr could clear surface staining be seen along with the persistent intracellular staining in LAMP-1^+ compartments (Figure 4A).
Figure 4 Cell Surface versus Intracellular Loading of mCD1d with Different αGalCer Analogs (A) On the left, surface accumulation of CD1d-αGalCer complexes was studied with JAWS II cells harvested after incubation with the indicated glycolipids for 1, 4, or 16 hr and then stained without permeabilization with mAb L363 (red). Cells were then fixed, stained with DAPI for nuclei visualization (blue), and analyzed by confocal microscopy. On the right, the intracellular formation and trafficking of CD1d-αGalCer complexes were analyzed by treatment of JAWS II cells with αGalCer analogs for 1, 4, and 16 hr followed by fixation and permeabilization. The cells were stained for CD1d-αGalCer complexes (L363, red), late endosomes and lysosomes (anti-LAMP-1, green), and nuclei (DAPI, blue). Results are representative of three separate experiments. The scale bar represents 10 μm. (B) Murine iNKT cell hybridoma cells (DN3A4.1-2) were stimulated with αGalCer analogs. As APCs for these stimulations, we used A20 cells transfected with wild-type CD1d (CD1d.WT) or cytoplasmic-tail-deleted CD1d (CD1d.TD). Supernatant concentrations of IL-2 release were determined after 12 hr. IL-2 production over a range of concentrations is shown for αGalCer-C26:0 and two analogs that produce a Th2 cell-type cytokine bias (αGalCer-C20:2 and -PGB1).
JAWS II cells were incubated at 37°C with 100 nM glycolipids for various times as indicated. For surface staining, live cells were harvested and washed extensively with PBS, resuspended in PBS + 1% BSA + 0.1% NaN3, stained on ice with 10 μg/ml Alexa Fluor 647-conjugated mAb L363 for 30 min, and lastly washed extensively and fixed with 4% paraformaldehyde. Cells were washed with PBS and settled onto poly-L-lysine-coated coverslips for 30 min and mounted with ProLong Gold with DAPI mounting medium (Invitrogen). For intracellular staining, JAWS II cells grown on glass coverslips were fixed in 4% paraformaldehyde, permeabilized with 0.05% Triton X-100 for 5 min, and stained with 10 μg/ml Alexa Fluor 647-conjugated L363 and FITC-conjugated anti-LAMP-1. Coverslips were washed and mounted. Confocal images were obtained with a Leica SP2 AOBS confocal microscope (Leica Microsystems). For colocalization of αGalCer/mCD1d complexes with ganglioside GM1-enriched plasma membrane lipid rafts, JAWS II cells were incubated for 18 hr at 37°C in complete medium without or with 100 nM of glycolipids. […] We performed quantitative analysis of colocalization by selecting 20–25 random cells in each group and determining a Pearson correlation coefficient for the distribution of pixel densities for K253 or L363 fluorescence compared to cholera toxin B-specific fluorescence. […]

[2] = system: GM1-enriched lipid rafts; assay type: cell-based, mouse; conditions: JAWS II cells, 18 hr with 100 nM glycolipid

Row | Structure (SMILES) | L363 surface staining of intact cells (confocal) [1] | site of L363 staining in permeabilized cells [1] | colocalization of L363 staining with CTxB staining [2]
1 | CCCCCCCCCCCCCCC(O)C(O)C(COC1OC(CO)C(O)C(O)C1O)NC(=O)CCCCCCCCC (stereo not shown) [αGalCer-C10:0] | showed L363 staining at earlier time points | L363 staining was observed at the plasma membrane | extremely limited colocalization with CTxB staining
2 | CCCCCC=CCC=CCCCCCCCCCC(=O)NC(COC1OC(CO)C(O)C(O)C1O)C(O)C(O)CCCCCCCCCCCCCC (stereo not shown) [αGalCer-C20:2] | showed L363 staining at earlier time points | L363 staining was observed at the plasma membrane | 
3 | CCCCCCCCCCCCCCCCCCCCCCCCCC(=O)NC(COC1OC(CO)C(O)C(O)C1O)C(O)C(O)CCCCCCCCCCCCCC (stereo not shown) [αGalCer-C26:0, reference compound] |  | observed only in a punctate intracellular distribution | strong colocalization with CTxB staining
